Active and inactive are the calls of the source.

Assay [1] is described as follows: Vero E6 cell cytotoxicity, dose response, cytotoxicity control for non-replicating M. tuberculosis project, secondary assay (AID 492998). It is filed as functional, VeroE6. The settings on record: Vero C1008.
The next assay concerns Vero. Put plainly: mammalian cell viability reduction – secondary assay, cytotoxicity control for West Nile virus antiviral project, dose response (AID 1650). It is filed as functional. The following applies: Chlorocebus sabaeus.
The nature of assay [2]: viability of uninfected HEp-2 cells – cell-based, HTS, cytotoxicity control for RSV inhibitor project, dose response (AID 2410). The format is functional. The settings on record: human respiratory syncytial virus.
The nature of assay [3]: cells. The format is functional.
Assay [4] is described as follows: THP-1 cell cytotoxicity, dose response, cytotoxicity control for non-replicating M. tuberculosis project (AID 489025). It is filed as functional.
The target in assay [5] is T1, Neuropeptide Y receptor type 1 (Homo sapiens, UniProt P25929).
T1 sequence (P25929 whole entry): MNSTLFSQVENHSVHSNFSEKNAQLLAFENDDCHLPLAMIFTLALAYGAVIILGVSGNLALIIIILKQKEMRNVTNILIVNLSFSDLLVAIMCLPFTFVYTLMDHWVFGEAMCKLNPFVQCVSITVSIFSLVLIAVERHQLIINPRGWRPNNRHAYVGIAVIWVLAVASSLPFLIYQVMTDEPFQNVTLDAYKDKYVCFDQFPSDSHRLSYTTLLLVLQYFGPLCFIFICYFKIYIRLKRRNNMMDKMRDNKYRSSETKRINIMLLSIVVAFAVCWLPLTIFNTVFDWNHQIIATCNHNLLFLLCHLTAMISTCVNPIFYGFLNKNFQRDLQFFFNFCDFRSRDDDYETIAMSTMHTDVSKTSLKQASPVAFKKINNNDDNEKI
Put plainly: Fluorescence-based counterscreen for agonists of NPY-Y2: cell-based high-throughput dose response assay for agonists of NPY-Y1. The format is functional. Background: Counterscreens check selectivity or assay interference.

In assay [6] the target is T2, Neuropeptide Y receptor type 2 (Homo sapiens, UniProt P49146).
T2 sequence (P49146 whole entry): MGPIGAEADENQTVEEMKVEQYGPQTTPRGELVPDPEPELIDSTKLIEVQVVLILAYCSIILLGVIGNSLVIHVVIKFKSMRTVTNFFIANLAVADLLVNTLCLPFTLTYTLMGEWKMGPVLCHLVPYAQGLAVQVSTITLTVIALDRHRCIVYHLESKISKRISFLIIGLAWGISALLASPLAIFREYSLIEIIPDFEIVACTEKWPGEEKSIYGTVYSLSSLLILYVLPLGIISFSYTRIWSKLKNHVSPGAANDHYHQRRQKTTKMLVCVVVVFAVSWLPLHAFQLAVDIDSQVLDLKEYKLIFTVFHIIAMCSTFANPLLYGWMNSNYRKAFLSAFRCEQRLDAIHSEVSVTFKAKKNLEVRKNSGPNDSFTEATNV
Put plainly: Fluorescence-based cell-based high-throughput dose response assay for agonists of NPY-Y2. [Related pubchem assays: 1703 (Screening assay (CNGC inhibitors).), 1359 (Screening assay (NPY-Y2 potentiators or agonists).), 1304 (Screening assay (NPY-Y1 potentiators or agonists).), 1710 (Screening assay (NPY-Y2 agonists).), 1791 (Summary AID.)]. The format is functional.

Assay [7] has as its target T3, Heat shock factor protein 1 (Mus musculus, UniProt P38532).
T3 sequence (P38532 whole entry): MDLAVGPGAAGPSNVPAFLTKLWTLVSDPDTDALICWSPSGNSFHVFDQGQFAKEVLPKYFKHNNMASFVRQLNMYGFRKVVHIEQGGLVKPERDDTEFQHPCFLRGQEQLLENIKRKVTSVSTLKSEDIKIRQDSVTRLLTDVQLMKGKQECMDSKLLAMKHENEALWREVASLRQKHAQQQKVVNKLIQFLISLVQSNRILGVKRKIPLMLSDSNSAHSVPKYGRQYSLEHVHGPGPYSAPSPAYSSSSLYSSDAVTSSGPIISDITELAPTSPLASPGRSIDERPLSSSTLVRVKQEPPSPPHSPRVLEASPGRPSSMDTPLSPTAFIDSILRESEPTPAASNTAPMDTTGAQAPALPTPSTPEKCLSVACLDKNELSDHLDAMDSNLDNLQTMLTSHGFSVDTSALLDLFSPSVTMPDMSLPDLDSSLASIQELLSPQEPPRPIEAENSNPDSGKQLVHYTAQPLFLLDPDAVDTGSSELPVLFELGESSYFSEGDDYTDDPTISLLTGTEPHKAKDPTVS
Put plainly: enhancement of HSF1-driven luciferase signal – cell-based, NIH3T3, luminescence, dose retest, confirmation (AID 435004).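 Further: stress induced by proteasome inhibitor MG132 added 30 min after compound; luciferase reporter driven by HSF1 response element in NIH3T3 cells; actives raise luminescence as potentiators of the MG132 stress response.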 It is filed as functional.

Assay [8] concerns HEK293. Put plainly: Fluorescence-based counterscreen for potentiators or agonists of NPY-Y2: cell-based high-throughput dose response assay to identify inhibitors of cyclic nucleotide gated ion channel (CNGC) activity. In this assay, the parental HEK293 cell line transfected with a cyclic-nucleotide gated ion channel (CNGC)-based cAMP sensor is used to measure inhibition of isoproterenol-induced CNGC activity by test compound. The format is functional. The following applies: Homo sapiens.

Assay [9] is described as follows: A Cell Based Secondary Assay To Explore Cytotoxicity of Compounds that Sensitize Mycobacterium Tuberculosis to Beta-Lactam Antibiotics. The format is functional.
The nature of assay [10]: Trypanosoma cruzi growth suppression in host cells – NIH3T3 host cells, beta-gal luminescence, confirmation (AID 2044).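 Further: intracellular parasites grown in NIH/3T3 mouse fibroblasts as host cells; luminescent beta-galactosidase reporter signal from transgenic T. cruzi replicating inside host cells; inhibitors lower the luminescence signal.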 The format is functional, cell-based.
The nature of assay [11]: NIH3T3 cell viability loss – ATP luminescence, mouse fibroblasts, counter-screen, dose response (AID 2010).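 Further: cells exposed to compound for about 90 hours before reading.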 The format is functional, cell-based.
The target in assay [12] is Voltage-dependent T-type calcium channel subunit alpha-1H (Homo sapiens, UniProt O95180). It is filed as functional.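 Further: channel activity triggered by adding a high calcium stimulation buffer.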
Sequence of Voltage-dependent T-type calcium channel subunit alpha-1H (O95180 whole entry): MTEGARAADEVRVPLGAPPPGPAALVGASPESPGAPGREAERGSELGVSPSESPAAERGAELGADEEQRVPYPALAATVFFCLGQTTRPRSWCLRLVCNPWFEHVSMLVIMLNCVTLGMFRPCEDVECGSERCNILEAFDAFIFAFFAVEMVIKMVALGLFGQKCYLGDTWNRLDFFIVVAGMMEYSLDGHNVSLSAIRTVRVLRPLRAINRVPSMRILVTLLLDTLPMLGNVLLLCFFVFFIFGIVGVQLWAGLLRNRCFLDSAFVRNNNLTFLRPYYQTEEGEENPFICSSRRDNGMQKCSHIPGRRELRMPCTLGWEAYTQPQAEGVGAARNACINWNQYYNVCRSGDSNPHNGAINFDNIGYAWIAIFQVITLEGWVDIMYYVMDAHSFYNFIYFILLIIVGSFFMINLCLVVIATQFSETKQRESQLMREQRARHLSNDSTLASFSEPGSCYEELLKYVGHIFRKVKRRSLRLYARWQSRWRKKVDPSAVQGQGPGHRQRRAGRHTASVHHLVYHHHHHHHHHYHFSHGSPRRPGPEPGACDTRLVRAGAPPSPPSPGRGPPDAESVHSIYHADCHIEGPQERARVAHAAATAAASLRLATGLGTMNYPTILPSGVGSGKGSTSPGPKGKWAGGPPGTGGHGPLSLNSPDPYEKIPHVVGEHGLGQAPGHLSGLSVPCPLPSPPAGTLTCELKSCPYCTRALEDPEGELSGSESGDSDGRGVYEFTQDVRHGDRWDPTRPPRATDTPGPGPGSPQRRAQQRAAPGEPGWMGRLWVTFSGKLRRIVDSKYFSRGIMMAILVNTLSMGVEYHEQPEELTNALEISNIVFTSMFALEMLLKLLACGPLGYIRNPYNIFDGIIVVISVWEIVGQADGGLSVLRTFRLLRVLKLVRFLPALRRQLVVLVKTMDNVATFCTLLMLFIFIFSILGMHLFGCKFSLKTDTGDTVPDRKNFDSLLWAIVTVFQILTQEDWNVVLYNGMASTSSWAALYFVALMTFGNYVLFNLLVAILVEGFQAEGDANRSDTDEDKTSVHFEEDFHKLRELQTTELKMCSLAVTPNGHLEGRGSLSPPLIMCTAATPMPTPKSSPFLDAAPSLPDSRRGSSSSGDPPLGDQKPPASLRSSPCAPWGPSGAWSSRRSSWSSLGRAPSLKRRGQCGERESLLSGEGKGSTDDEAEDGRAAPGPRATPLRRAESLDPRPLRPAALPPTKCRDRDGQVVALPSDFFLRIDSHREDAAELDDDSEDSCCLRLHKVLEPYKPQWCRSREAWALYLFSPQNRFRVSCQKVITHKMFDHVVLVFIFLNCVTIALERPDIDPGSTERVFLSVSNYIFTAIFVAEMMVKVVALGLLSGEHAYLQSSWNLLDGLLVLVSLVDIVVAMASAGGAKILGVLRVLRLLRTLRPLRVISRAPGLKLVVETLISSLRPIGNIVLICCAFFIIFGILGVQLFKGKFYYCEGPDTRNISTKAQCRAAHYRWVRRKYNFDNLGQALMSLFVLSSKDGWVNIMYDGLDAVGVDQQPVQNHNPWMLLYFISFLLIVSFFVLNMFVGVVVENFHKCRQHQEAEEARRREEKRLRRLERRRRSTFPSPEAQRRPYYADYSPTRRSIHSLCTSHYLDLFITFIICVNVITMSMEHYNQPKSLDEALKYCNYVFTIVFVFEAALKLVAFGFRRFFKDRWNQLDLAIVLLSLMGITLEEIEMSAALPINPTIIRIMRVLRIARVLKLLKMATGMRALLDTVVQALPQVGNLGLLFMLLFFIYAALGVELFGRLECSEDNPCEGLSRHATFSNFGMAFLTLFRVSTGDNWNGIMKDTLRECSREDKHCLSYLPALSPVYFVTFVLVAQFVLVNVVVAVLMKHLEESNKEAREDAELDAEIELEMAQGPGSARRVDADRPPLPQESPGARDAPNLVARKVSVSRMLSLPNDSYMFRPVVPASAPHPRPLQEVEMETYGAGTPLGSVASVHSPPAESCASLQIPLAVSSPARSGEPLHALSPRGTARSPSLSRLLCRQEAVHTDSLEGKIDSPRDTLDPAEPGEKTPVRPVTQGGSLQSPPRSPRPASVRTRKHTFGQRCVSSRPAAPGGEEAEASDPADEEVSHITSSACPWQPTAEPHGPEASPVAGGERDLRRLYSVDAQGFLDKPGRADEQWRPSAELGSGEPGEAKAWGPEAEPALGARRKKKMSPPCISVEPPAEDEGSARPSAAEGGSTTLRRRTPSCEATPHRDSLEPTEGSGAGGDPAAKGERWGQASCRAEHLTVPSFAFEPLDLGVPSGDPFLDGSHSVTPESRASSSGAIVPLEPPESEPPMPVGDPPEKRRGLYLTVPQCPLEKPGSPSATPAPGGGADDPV
For assay [13], the system named is HEK293. Put plainly: cells. The format is functional, cell-based. The settings on record: Homo sapiens.
Assay [14] deals with HEK293. Put plainly: cells. The following applies: Homo sapiens. The format is functional, cell-based. This is another data set of the same source.
Assay [15] has as its system HEK293. Nature of the assay: inhibition of NOD1-driven NF-kB reporter – cell-based, luminescence, uHTS, primary screen (AID 1578). It is filed as functional. The settings on record: Homo sapiens.
Assay [16] relates to HEK293. Nature of the assay: NOD2 signaling inhibitors in MDP-stimulated cells, cell-based, uHTS, luminescence (AID 2001). It is filed as functional. The following applies: Homo sapiens.
The target in assay [17] is Nucleotide-binding oligomerization domain-containing protein 2 (Homo sapiens, UniProt Q9HC29). Put plainly: inhibition of NOD2-driven NF-kB reporter – cell-based, luminescence, uHTS, HEK293 (AID 1566). The format is functional.
Sequence of Nucleotide-binding oligomerization domain-containing protein 2 (Q9HC29 whole entry, the tested form may be a part): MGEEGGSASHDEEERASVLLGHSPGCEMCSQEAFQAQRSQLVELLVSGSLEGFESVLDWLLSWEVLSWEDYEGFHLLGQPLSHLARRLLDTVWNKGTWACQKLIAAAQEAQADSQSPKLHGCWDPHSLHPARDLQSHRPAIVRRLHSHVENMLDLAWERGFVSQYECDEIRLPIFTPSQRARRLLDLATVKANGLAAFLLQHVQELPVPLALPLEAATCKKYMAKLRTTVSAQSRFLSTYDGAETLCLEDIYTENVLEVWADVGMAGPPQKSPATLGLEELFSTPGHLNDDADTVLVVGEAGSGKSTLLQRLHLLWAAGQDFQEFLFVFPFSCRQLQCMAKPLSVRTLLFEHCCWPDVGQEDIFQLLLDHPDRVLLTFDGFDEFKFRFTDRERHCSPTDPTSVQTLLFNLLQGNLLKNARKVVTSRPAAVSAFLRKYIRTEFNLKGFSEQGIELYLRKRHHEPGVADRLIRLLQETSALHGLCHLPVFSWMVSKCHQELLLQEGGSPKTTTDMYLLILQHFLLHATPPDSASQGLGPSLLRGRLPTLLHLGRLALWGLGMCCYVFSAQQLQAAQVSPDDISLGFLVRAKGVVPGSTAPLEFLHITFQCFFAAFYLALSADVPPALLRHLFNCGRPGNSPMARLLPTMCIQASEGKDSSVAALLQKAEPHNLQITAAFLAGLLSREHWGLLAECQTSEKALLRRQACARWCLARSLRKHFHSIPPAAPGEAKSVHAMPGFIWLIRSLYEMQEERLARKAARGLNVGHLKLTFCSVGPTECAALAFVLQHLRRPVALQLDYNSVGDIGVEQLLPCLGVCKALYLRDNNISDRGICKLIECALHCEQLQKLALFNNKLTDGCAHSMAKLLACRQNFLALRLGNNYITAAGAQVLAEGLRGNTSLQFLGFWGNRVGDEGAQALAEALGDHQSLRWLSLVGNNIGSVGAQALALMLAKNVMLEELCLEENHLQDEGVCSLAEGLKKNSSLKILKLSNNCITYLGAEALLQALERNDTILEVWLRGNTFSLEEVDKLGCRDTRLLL
Assay [18] concerns HEK293. Put plainly: cells. The format is functional, cell-based. The following applies: Homo sapiens. The source holds these as a separate data set.
For assay [19], the target named is DNA dC->dU-editing enzyme APOBEC-3A (Homo sapiens, UniProt P31941). Put plainly: A3A deaminase inhibition for selectivity – biochemical, dose response (AID 504722). It is filed as functional.
Sequence of DNA dC->dU-editing enzyme APOBEC-3A (P31941 whole entry): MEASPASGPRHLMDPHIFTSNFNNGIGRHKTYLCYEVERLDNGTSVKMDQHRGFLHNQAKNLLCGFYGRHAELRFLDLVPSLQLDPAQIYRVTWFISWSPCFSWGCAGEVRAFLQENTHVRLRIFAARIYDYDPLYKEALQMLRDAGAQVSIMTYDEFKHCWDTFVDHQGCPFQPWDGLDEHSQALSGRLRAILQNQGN
Assay [20] concerns the target DNA dC->dU-editing enzyme APOBEC-3G (Homo sapiens, UniProt Q9HC16). Nature of the assay: Dose Response confirmation of small molecule APOBEC3G DNA Deaminase Inhibitors via a fluorescence-based single-stranded DNA deaminase assay. [Related pubchem assays (depositor defined):AID493012, AID493028]. The format is functional.
The target in assay [21] is Lysosomal acid glucosylceramidase (Homo sapiens, UniProt P04062). Put plainly: Dose response cell-based high throughput screening assay to identify enhancers of beta-glucosidase activity. [Related pubchem assays: 784 ]. It is filed as functional.
Sequence of Lysosomal acid glucosylceramidase (P04062 whole entry): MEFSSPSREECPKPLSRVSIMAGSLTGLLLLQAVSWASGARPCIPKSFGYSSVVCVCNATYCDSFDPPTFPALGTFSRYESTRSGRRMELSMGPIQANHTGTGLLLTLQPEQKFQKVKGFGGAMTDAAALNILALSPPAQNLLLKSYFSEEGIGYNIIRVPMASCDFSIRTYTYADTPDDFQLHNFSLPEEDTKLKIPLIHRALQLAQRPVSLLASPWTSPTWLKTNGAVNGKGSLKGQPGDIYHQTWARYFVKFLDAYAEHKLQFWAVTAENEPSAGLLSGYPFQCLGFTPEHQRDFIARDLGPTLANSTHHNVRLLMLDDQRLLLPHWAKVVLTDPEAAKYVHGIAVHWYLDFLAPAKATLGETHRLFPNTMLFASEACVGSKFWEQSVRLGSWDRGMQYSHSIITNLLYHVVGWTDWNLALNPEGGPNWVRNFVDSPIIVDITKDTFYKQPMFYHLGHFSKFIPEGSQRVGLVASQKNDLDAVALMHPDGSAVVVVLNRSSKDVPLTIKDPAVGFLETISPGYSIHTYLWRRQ
Assay [22] is described as follows: cells.
For assay [23], the target named is Dual specificity protein phosphatase 3 (Homo sapiens, UniProt P51452). Nature of the assay: SAR VHR1 Fluorescent Assay for In Vitro dose response studies Set 2. [Related pubchem assays (depositor defined):AID1654, AID1661, AID1878]. It is filed as functional.
Sequence of Dual specificity protein phosphatase 3 (P51452 whole entry): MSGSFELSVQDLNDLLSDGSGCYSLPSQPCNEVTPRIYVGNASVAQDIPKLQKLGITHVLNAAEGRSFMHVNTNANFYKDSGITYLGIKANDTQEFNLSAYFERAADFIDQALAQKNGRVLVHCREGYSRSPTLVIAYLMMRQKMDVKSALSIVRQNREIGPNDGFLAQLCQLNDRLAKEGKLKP
Assay [24] deals with T4, Tyrosine-protein phosphatase non-receptor type 7 (Homo sapiens, UniProt P35236).
T4 sequence (P35236 whole entry): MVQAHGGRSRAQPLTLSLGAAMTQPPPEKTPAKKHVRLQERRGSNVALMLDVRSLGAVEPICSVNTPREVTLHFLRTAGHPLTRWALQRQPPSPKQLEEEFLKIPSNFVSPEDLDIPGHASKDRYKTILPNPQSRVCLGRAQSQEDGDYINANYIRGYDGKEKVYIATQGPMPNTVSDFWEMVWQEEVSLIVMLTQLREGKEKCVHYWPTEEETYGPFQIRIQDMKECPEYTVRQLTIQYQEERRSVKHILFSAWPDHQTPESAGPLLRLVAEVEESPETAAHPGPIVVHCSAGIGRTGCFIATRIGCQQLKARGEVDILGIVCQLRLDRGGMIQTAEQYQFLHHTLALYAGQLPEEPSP
Put plainly: SAR analysis of chemical inhibitors of HePTP using a Fluorescent assay - Set 2. [Related pubchem assays (depositor defined):AID1059, AID1077, AID1661, AID2085, AID521]. The format is functional.

Assay [25] can be described thus: viability loss in THP-1 monocytes – THP-1 cells, cytotoxicity control for Vif-APOBEC3G degradation inhibitor project, dose response (AID 1117359). It is filed as functional. The settings on record: THP-1.

Sequence of DNA dC->dU-editing enzyme APOBEC-3G (Q9HC16 whole entry): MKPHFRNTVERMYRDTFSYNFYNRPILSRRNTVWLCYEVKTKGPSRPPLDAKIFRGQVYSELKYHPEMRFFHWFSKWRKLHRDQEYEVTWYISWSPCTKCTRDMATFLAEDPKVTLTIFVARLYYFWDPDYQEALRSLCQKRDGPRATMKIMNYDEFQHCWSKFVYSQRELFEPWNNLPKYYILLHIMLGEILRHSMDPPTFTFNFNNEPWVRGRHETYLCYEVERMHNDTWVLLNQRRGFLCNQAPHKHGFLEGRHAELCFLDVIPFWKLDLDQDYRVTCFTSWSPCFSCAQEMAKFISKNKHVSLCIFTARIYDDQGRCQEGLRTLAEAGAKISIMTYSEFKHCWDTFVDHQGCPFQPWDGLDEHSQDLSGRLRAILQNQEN

One may read the CC50 as the concentration that lowers cell viability or growth by half. One may read the IC50 as the midpoint of a concentration-inhibition curve. Regarding `NCCOc1ccc(C23CC4CC(CC(C4)C2)C3)cc1`, the CC50 in assay [1] is > 20 µM (active); with Vero, 10.7 µM (active); in assay [2] it was 13.1 µM (active); in assay [4], 11.4 µM (active). Besides, the 50% inhibitory concentration (IC50) in the assay “cells [3]” was 23.4 µM (active).

As usually defined, the EC50 is the concentration needed to bring the measured effect to its halfway point. `O=C(c1ccc(F)cc1F)C1CCN(c2ccc([N+](=O)[O-])cn2)CC1`: the EC50 is > 35.4 µM (not active) in [5], 27.5 µM (not active) in assay [6], > 260 µM (inactive) in assay [7] and > 35.4 µM (not active) in the assay on HEK293 [8].

Take `CCC1Nc2ncnc(N3CCN(c4ccccc4)CC3)c2N(Cc2ccc(Br)cc2)C1=O` (centres undefined): the CC50 in [9] is > 40 µM (active). Moreover, the EC50 in assay [10] was 1.59 µM (active); in assay [11], > 60 µM (not active).

On to `Cc1nc2ccccc2c2oc(C(=O)NCC3COc4ccccc4O3)cc12` (centres undefined), for which the EC50 in assay [12] is 7.77 µM (active); in the assay on HEK293 [15] it was 4.69 µM (active); in assay [17] it was 4.75 µM (active). Further, the IC50 in the assay with HEK293 [13] was 8.6 µM (active); with HEK293 [14] it was > 20 µM (inactive); with HEK293 [16], 3.93 µM (inactive); in the assay with HEK293 [18] it was 4.14 µM (active).

On to `N#Cc1c(-c2ccncc2)c2c([nH]c1=S)CCCC2`, for which the IC50 in assay [19] was > 100 µM (inactive); in [20], 2.21 µM (active).

As for `N#Cc1c(S)nc2c(c1-c1cccnc1)CCCC2`, the IC50 was > 100 µM (inactive) in assay [19] and 2.72 µM (active) in assay [20].

Regarding `Cc1ccc(C)c(N(C)S(=O)(=O)c2cccc3nsnc23)c1`, the EC50 in assay [21] was > 50 µM (not active).

On to `COc1cccc(NC(=O)C2C3C=CC4(O3)C2C(=O)N(C(C)C)C4C(=O)NC2CCCCC2C)c1` (centres undefined), for which the EC50 in assay [21] was > 50 µM (not active).

For `Cc1cccc2nc(COc3ccc(Cl)c4cccnc34)cn12`, in the assay “cells [22]”, the concentration for half-maximal inhibition (IC50) was 33.2 µM (active).

On to `Cc1ccc(-c2nc3ccccc3o2)cc1NC(=S)NC(=O)/C=C/c1ccco1`, for which the CC50 in assay [9] was 32.9 µM (active).

`NS(=O)(=O)c1ccc(NC(=S)N2CCN(Cc3ccccc3)CC2)cc1`: the values for the IC50 in assay [23] and in assay [24] were 38.1 µM (active) and 49.7 µM (active), respectively.

Regarding `O=C(N/N=C\c1ccc(Cl)cc1)C1=NOC2COC3(CCN(c4ccc([N+](=O)[O-])cc4)CC3)OCC12` (centres undefined), the CC50 in assay [25] is > 40 µM (active). Also, the EC50 (in assay [5]; in [6]; with HEK293 [8]) was > 35.4 µM (not active) in each case.

For `c1ccc(N2CCN(Cc3nc4ccccc4[nH]3)CC2)nc1` [ABT-724], the IC50 in the assay “cells [22]” was 24 µM (active).

Values taken from ChEMBL document CHEMBL1201862, “PubChem BioAssay data set” (2004).
